Measurements: US9526721B2, “Tetrahydroprotoberbine compounds and uses thereof in the treatment of neurological, psychiatric and neurodegenerative diseases” (priority 2012, dated 2016)
Like-named read-outs stand apart in the source and are kept apart here. Marks after values point to notes of the source that are not given here.

How the values were obtained:
[1] = test system: rats; assay: Temporal order recognition (radial arm maze); details: 1.0 mg/kg govadine isomers, 5.0 mg/kg clozapine
Procedure: The task exploits a rat's natural preference for novel locations. Each animal received 3 separate trials where access to two arms of an eight arm radial arm maze was granted. During the first trial, two arms were selected at random for exploration, and animals were allowed to explore these arms for 2 min After this time, they were taken off the maze and returned to their home cage. 1 hour later they were placed back on the maze and two new arms were randomly selected for 2 min of exploration.
Time spent in each arm (recent and old) was recorded as well as total distance traveled and the total number of arm entries in Noldus EthoVision 3.1 (Leesburg, Va.).

[2] = test system: rats; assay: Latent inhibition; type: in vivo, rat
Procedure: Sensitization: Animals were removed from the colony and taken to a holding room where they received either IP d-AMPH or saline every Monday, Wednesday, and Friday. Doses started at 1 mg/kg and increased 1 mg/kg each week over 5 weeks to 5 mg/kg. 25 days after the induction phase, behavioral sensitization was assessed over 3 days in locomotor chambers (plexiglass box, 40 cm×40 cm×40 cm) where speed and distance traveled were recorded using Noldus Ethovision XT (Noldus, Leesburg, Va.). The first day consisted of a 2 hr acclimation session, and prior to counter balanced injections of either 0.5 mg/kg d-AMPH or saline on days 2 and 3 animals were acclimated for 1 hr. Experiments were run in two separate cohorts of 30 animals to minimize the time between testing sensitization and LI.
Latent Inhibition: LI tests were performed in rats treated with 1.0 mg/kg acute d-AMPH, sensitized rats, and drug-naive rats. LI testing began 5 days post-challenge of the escalating dose regime. Animals in both conditions (chronic saline or sensitized) were randomly assigned to either non-pre-exposed (NPE) or pre-exposed (PE) groups. Testing took place over 3 consecutive days. […] Animals in the PE group received 50 presentations of the CS (10 sec duration) per day at a variable interval for the first two days. Animals in the NPE group were placed in the chamber for an equal time as the PE animals. Conditioning (COND) consisted of 100 CS-US pairings. Latency to cross into the other compartment and the number of total beam breaks were recorded. Drug-naïve animals receiving acute 1.0 mg/kg AMPH were injected IP 45 min before the COND trial.
The effects of the two individual enantiomers of govadine on latent inhibition (LI) were also tested as described in Example 12.

[3] = test system: rats; assay: Amphetamine-induced locomotion (AIL); details: Rattus norvegicus, ip, 1 h, read-out: AIL (ED50)
Procedure: Animals were habituated to the locomotor arena for 1 hr on 4 consecutive days prior to testing. Locomotor activity was assessed on day 1 of habituation and treatment groups were assigned in a counter balanced fashion depending on locomotor activity on this day.
After d-AMPH/SAL injection, distance travelled was assessed for 1 hr. Distance travelled was recorded with Noldus Ethovision XT (Noldus, Leesburg, Va.) and analyzed off-line.
Amphetamine induced locomotion (AIL): Animals were habituated to locomotor arenas for 1 hr on 4 consecutive days prior to testing. Locomotor activity was assessed on day 1 of habituation and treatment groups were assigned in a counter-balanced manner determined by distance traveled on day 1. […] Distance traveled was recorded with Noldus Ethovision XT (Noldus, Leesburg, Va.) and analyzed off-line.

[4] = biological target: T1, D1 (Homo sapiens, UniProt P21728); assay: Receptor binding, dopamine D1; parameters: host or cells: CHO cells; details: present data; comparison ligand 0.14 nM SCH-23390; read-out: D1 (Ki)
T1 sequence (P21728 whole entry): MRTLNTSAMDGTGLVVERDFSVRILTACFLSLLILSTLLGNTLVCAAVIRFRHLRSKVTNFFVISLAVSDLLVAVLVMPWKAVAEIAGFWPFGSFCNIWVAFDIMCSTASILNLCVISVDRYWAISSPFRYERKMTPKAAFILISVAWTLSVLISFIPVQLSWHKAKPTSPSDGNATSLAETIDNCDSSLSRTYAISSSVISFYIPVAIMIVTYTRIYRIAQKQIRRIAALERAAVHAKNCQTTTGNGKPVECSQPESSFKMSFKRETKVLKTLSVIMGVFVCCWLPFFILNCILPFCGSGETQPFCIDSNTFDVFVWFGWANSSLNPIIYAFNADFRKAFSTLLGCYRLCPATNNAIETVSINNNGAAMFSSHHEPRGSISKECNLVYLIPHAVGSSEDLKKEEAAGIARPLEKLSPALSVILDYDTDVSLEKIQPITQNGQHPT
Procedure: (§1) All receptors tested were heterologously expressed CHO cells and IC50 values were determined by a non-linear, least squares regression analysis using MathIQ (ID Business Solution Ltd, UK). Ki was calculated using the equation of Cheng and Prusoff (1973, Biochem. Pharmacol 22:23099-3108) derived from the observed IC50 of the tested compound, the concentration of radioligand employed in the assay, and the historical values for the Kd of the ligand (obtained experimentally at MDS Pharma Services).
as §1, with “receptors” for “receptors tested”, “UK). K1” for “UK). Ki”, “calculated (Y.” for “calculated using the equation of”, “Cheng &” for “Cheng and”, “Prusoff 1973)” for “Prusoff (1973, Biochem. Pharmacol 22:23099-3108) derived”

[5] = biological target: T2, D2L (Homo sapiens, UniProt P14416); assay: Receptor binding, dopamine D2L; details: present data; comparison ligand 0.16 nM Spiperone; read-out: D2L (Ki)
T2 construct: host or cells: CHO cells
T2 sequence (P14416 whole entry): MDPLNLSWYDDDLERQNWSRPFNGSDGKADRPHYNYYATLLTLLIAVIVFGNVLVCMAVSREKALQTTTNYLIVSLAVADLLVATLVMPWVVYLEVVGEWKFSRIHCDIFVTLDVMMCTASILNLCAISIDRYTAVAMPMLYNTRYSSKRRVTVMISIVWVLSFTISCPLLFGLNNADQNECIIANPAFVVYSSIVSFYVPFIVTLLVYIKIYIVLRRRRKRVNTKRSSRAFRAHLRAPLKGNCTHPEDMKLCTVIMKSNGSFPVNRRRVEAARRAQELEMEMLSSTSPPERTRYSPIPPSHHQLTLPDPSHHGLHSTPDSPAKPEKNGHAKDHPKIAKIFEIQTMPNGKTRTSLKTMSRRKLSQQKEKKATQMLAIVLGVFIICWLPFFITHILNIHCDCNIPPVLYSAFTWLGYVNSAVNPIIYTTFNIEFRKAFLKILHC
Procedure: as §1
as §1, with “receptors” for “receptors tested”, “UK). K1” for “UK). Ki”, “calculated (Y.” for “calculated using the equation of”, “Cheng &” for “Cheng and”, “Prusoff 1973)” for “Prusoff (1973, Biochem. Pharmacol 22:23099-3108) derived”

[6] = test system: D1/D2; assay: D1/D2 affinity ratio; type: binding; details: present data
Procedure: as §1, with “receptors” for “receptors tested”, “UK). K1” for “UK). Ki”, “calculated (Y.” for “calculated using the equation of”, “Cheng &” for “Cheng and”, “Prusoff 1973)” for “Prusoff (1973, Biochem. Pharmacol 22:23099-3108) derived”

[7] = test system: rats; assay: Microdialysis of prefrontal cortex and nucleus accumbens;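 further: dialysate collected every 10 min from freely moving rats, analysed by HPLC with electrochemical detection, after four stable baseline samples (under 10% variation) preceding drug dosing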
Procedure: Rats received subcutaneous injections of an analgesic (ketoprofen 0.05 mL or buprenorphine, 0.1 mL) and sterile saline (0.9% NaCl, ˜3 mL). Once shaved and cleaned, the heads were secured in the stereotaxic frame in flat skull position for bilateral implantation of stainless steel microdialysis guide cannulae (19 gauge×15 mm) in the nucleus accumbens (NAc) (from bregma +1.7 mm anterior and ±1.1 mm medial; from dura −1.0 mm ventral) or medial prefrontal cortex (mPFC) (+3.0 mm anterior, ±0.6 mm medial; −1.0 mm ventral). […] Rats were allowed to rest with heat support until they regained consciousness, and then given a one-week recovery period.
Microdialysis probes were assembled 1-2 days prior to microdialysis experiments. Probes were concentric in design, constructed from Filtral 12 AN69HF semi-permeable hollow fibres (2 mm length, 340 μm OD×4 mm, 65 kDalton molecular weight cut-off; Hospal, Neurnberg, Germany) and silica inlet-outlet lines (75/150 um ID/OD).
The day prior to microdialysis experiments, probes were connected to an Instech dual-channel liquid swivel (Plymouth Meeting, Pa.) and flushed with artificial cerebrospinal fluid (aCSF). […] Following DA recovery tests, probes were implanted via the guide cannulae (dialysis membrane spanned −4.8 to −6.8 mm ventrally for NAc; −1.6 to −3.6 mm for mPFC). Rats remained in the testing chamber overnight (14-16 hr) with aCSF perfusing continuously through the probes at 1 μL/min In the morning, microdialysis samples were collected at 10 min intervals and assayed for DA, DOPAC, homovanillic acid (HVA) and 5-HIAA content. Once baseline levels were determined to be stable for four consecutive samples (less than 10% fluctuation), the drug treatment phase of each experiment was initiated.
Microdialysis samples were analyzed immediately after collection using high pressure liquid chromatography (HPLC) with electrochemical detection. […] The mobile phase [70 mM sodium acetate buffer, 40 mg/L EDTA and 50 mg/L of sodium dodecyl sulfate (adjustable), pH 4.0, 10% methanol] flowed through the system at 0.17 mL/min EZChrome Elite software (Scientific Software, Pleasanton, Calif.) was used to acquire and analyze chromatographic data.
After the experiments, rats were deeply anesthetized, brains were removed and stored in 20% w/v sucrose and 4% v/v paraformaldehyde. Brains were sliced into 50 um coronal sections, stained with cresyl violet and examined for probe placement.
Microdialysis probes (2 mm active membrane) were implanted in the NAc and mPFC ˜16 hrs prior to start of the experiment and continuously perfused aCSF.

[8] = Catalepsy (bar test); type: in vivo, rat; details: rat, in vivo; present data; SC, 45 min time point
Procedure: (§2) Testing occurred in a plexiglas box (28 cm×45 cm×20 cm) containing a horizontal steel bar located 8 cm above floor level. […] After injection animals were returned to the test box and catalepsy testing occurred at 1, 15, 30, and 45 minutes after injection. Testing at each time point lasted 2 min after the forepaws of each rat was placed on the bar. Behavior was recorded with a video camera (Cohu, Poway, Calif.) and scored off-line. The cumulative time spent immobilized with both forelimbs on the horizontal bar was scored for each 2 min test epoch. Videos selected at random were scored independently by a second observer and a high inter-rater reliability was observed (R^2=0.93, F=393.4, p<0.05).
(§3) Catalepsy testing was conducted as described in Example 12.

[9] = test system: rats; assay: Catalepsy (bar test); type: in vivo, rat
Procedure: as §2, §3

[10] = test system: rats; assay: Conditioned avoidance responding (CAR)
Procedure: Conditioned avoidance responding (CAR) was performed in a two-way avoidance procedure with drug naive rats in four shuttle boxes (Med Associates, Vt., USA) each consisting of two compartments separated by an open door. Each compartment contained a wall-mounted speaker, house light and 5 photocells to detect the location of the animal. All experimental protocols and data acquisition were controlled by custom programs written in MED-PC.
Before training, each animal received two acclimation sessions lasting 30 min with only the house light illuminated. […] Pairings of the conditioned stimulus (CS) (white noise, ˜60 dB) and the unconditioned stimulus (US) (footshock, 0.75 mA) were presented at random intervals with a mean of 60 sec. The CS was presented for 10 sec. During this time, if the animal moved to the opposite side of the box, the white noise was silenced, no foot shock delivered, and an avoidance response was scored. Upon termination of the 10 sec tone, if the animal had not moved to the opposite side of the box, a foot-shock was administered for 2 sec. […] Failure to avoid or escape constituted a response failure and was scored accordingly. After reaching a criterion of 90% avoidances for a block of 20 trials, usually achieved with ˜100 CS-US pairings, each animal advanced to the drug-testing phase. Animals not meeting the criterion by 120 pairings were excluded from the study.
Pairings were presented just as during training and were scored in the same fashion. The test trial consisted of 100 CS-US pairings.

[11] = test system: D1/D2; details: cited from earlier work
[12] = biological target: T1, D1; details: read-out: D1 (Ki); Xu, S. X. et al., 1989; comparison ligand 0.14 nM SCH-23390; cited from earlier work
[13] = biological target: T2, D2L; details: Xu, S. X. et al., 1989; comparison ligand 0.16 nM Spiperone; cited from earlier work
[14] = test system: rats; details: Natesan et al., 2008; cited from earlier work
[15] = test system: rats; details: Natesan et al., 2008; cited from earlier work; remark: listed apart in the source
[16] = test system: rats; details: Natesan et al., 2008; listed as 1-SPD; cited from earlier work
[17] = microdialysis, nucleus accumbens
[18] = microdialysis, prefrontal cortex

CN1CCN(C2=Nc3cc(Cl)ccc3Nc3ccccc32)CC1 [Clozapine, reference compound]
Arm Entries ([1]; 45 min. delay): 7.0 ± 1.9
Distance Travelled ([1]; 45 min. delay): 1286 ± 177
Arm Entries ([1]; 4 hr. delay): 6.0 ± 1.6
Distance Travelled ([1]; 4 hr. delay): 1098 ± 74

COc1cc2c(cc1O)CN1CCc3cc(OC)c(O)cc3C1C2 (racemic) [dl-govadine]
latent inhibition in non-sensitized animals ([2]; 1.0 mg/kg SC before each pre-exposure session): no subsequent effect on LI
latent inhibition in d-AMPH sensitized animals ([2]; 1.0 mg/kg SC before each pre-exposure, 5-week escalating d-AMPH): restored LI to levels observed in controls
latent inhibition in acute d-AMPH-treated animals ([2]; treatment before each pre-exposure, 1.0 mg/kg d-AMPH before conditioning): restored LI
ED50 at […] [3]: 1.7 mg/kg
Ki [4]: 6.7 nM
Ki [5]: 283 nM
D1/D2 [6]: 0.023#
DA efflux in NAc and mPFC compared to control ([7]; 1 mg/kg, Example 15): enhanced DA efflux
5-HIAA in NAc [7, 17]: No increase
DOPAC in NAc [7, 17]: Increases
HVA in NAc [7, 17]: Increases
dopamine level in NAc [7, 17]: increased
5-HIAA in PFC [7, 18]: No increase
DOPAC in PFC [7, 18]: Increases
HVA in PFC [7, 18]: Increases
dopamine level in PFC [7, 18]: increased
ED50 at 45 min [8]: 4.7 mg/kg
catalepsy observed ([9]; 1.0 mg/kg SC): mild motor suppression
catalepsy observed ([9]; 6.0 mg/kg SC): Strong and extended catalepsy
catalepsy (immobilized contact time) ([9]; SC, across doses tested): dose-dependent increase
ED50 ([10]; Rattus norvegicus, sc, 20 min, read-out: CAR (ED50), present data, SC, 20 min post-injection): 0.723 mg/kg
escapes in CAR ([10]; SC, 100 CS-US pairings): increase in escapes
suppression of conditioned avoidance responding (avoidances) ([10]; SC, 100 CS-US pairings): dose-dependently suppressed avoidances
CAR (ED50) ([10]; present data, SC, 20 min post-injection): 0.720# mg/kg
effect of repeated treatment in CAR ([10]; repeated treatment, FIG. 14): Neither of these effects was observed

COc1cc2c(cc1O)[C@@H]1Cc3ccc(O)c(OC)c3CN1CC2 [l-Stepholidine, l-stepholidine]
D1/D2 ([11]; Natesan et al., 2008): 0.850*
D1/D2 ([11]; Xu, S. X. et al., 1989): 0.150**
Ki [12]: 13 nM
Ki [13]: 85 nM
AIL (ED50) [14]: 2.36* mg/kg
Catalepsy (ED50) [15]: 3.6 mg/kg
CAR (ED50) [16]: 0.27 mg/kg
